From PubChem BioAssay AID330 (DTP/NCI, 2004)
“And” between values parts separate entries of the source, which are not always exact repeats. Equal values may be shown once. Toxic doses and inconclusive results are not listed.

System: P388 leukemia ip, CD2F1 mice, survival T/C
Assay: NCI In Vivo Anticancer Drug Screen. Data for tumor model P388 Leukemia (intraperitoneal) in CD2F1 (CDF1) mice
Conditions: endpoint: median survival time, higher = longer survival
Outline: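 Mice carrying the transplanted tumor received test compound or vehicle. Survival was recorded in each group, and the value is the treated-group measurement divided by that of the vehicle-treated control group.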

[1] = dose: 6.25 mg/kg/injection, schedule: Q01DX005 (ip), vehicle: Klucel (hydroxypropylcellulose) (HPC)
[2] = dose: 12.5 mg/kg/injection, schedule: Q01DX005 (ip), vehicle: Klucel (hydroxypropylcellulose) (HPC)
[3] = dose: 25.0 mg/kg/injection, schedule: Q01DX005 (ip), vehicle: Klucel (hydroxypropylcellulose) (HPC)
[4] = dose: 50.0 mg/kg/injection, schedule: Q01DX005 (ip), vehicle: Klucel (hydroxypropylcellulose) (HPC)
[5] = dose: 100.0 mg/kg/injection, schedule: Q01DX005 (ip), vehicle: Klucel (hydroxypropylcellulose) (HPC)
[6] = dose: 200.0 mg/kg/injection, schedule: Q01DX005 (ip), vehicle: Klucel (hydroxypropylcellulose) (HPC)
[7] = dose: 100.0 mg/kg/injection, schedule: Q04DX003 (ip), vehicle: saline
[8] = dose: 200.0 mg/kg/injection, schedule: Q04DX003 (ip), vehicle: saline
[9] = dose: 50.0 mg/kg/injection, schedule: Q01DX009 (ip), vehicle: saline with Tween-80
[10] = dose: 100.0 mg/kg/injection, schedule: Q01DX009 (ip), vehicle: saline with Tween-80
[11] = dose: 15.0 mg/kg/injection, schedule: Q01DX005 (ip), vehicle: saline
[12] = dose: 30.0 mg/kg/injection, schedule: Q01DX005 (ip), vehicle: saline

C/C=C(\C)c1cc(=O)c2c(C)cc3c(c2o1)C(=O)c1c(O)c(C2CC(C)(N(C)C)C(O)C(C)O2)cc(C2CC(N(C)C)C(O)C(C)O2)c1C3=O (stereo unspecified)
T/C (dose: 0.31 mg/kg/injection, schedule: Q01DX009 (ip), vehicle: saline): 100 % of control | T/C (dose: 0.62 mg/kg/injection, schedule: Q01DX009 (ip), vehicle: saline): 153 % of control | T/C (dose: 1.25 mg/kg/injection, schedule: Q01DX009 (ip), vehicle: saline): 91 % of control | T/C (dose: 2.0 mg/kg/injection, schedule: Q01DX009 (ip), vehicle: Klucel (hydroxypropylcellulose) (HPC)): 118 % of control | T/C (dose: 2.0 mg/kg/injection, schedule: Q01DX009 (ip), vehicle: saline): 154 % of control | T/C (dose: 3.0 mg/kg/injection, schedule: Q01DX009 (ip), vehicle: saline): 109 % of control | T/C (dose: 5.0 mg/kg/injection, schedule: Q01DX009 (ip), vehicle: saline): 94 % of control | T/C (dose: 6.25 mg/kg/injection, schedule: Q01DX009 (ip), vehicle: saline with Tween-80): 95 % of control

COc1ccc(C2CC(=O)NC(NC#N)=N2)c(O)c1 (stereo unspecified)
T/C (dose: 50.0 mg/kg/injection, schedule: Q01DX009 (ip), vehicle: saline): 104 % of control | T/C (dose: 100.0 mg/kg/injection, schedule: Q01DX009 (ip), vehicle: saline): 102 % of control | T/C (dose: 200.0 mg/kg/injection, schedule: Q01DX009 (ip), vehicle: saline): 100 % of control

COc1cccc(/C=C2/C(=O)N(c3ccc([N+](=O)[O-])cc3)N=C2C)c1
T/C (dose: 30.0 mg/kg/injection, schedule: Q01DX005 (ip), vehicle: Klucel (hydroxypropylcellulose) (HPC)): 97 % of control | T/C (dose: 60.0 mg/kg/injection, schedule: Q01DX005 (ip), vehicle: Klucel (hydroxypropylcellulose) (HPC)): 88 % of control | T/C (dose: 120.0 mg/kg/injection, schedule: Q01DX005 (ip), vehicle: Klucel (hydroxypropylcellulose) (HPC)): 98 % of control | T/C (dose: 240.0 mg/kg/injection, schedule: Q01DX005 (ip), vehicle: Klucel (hydroxypropylcellulose) (HPC)): 93 % of control

CN1C2C=C(c3ccc(Cl)cc3)CC1CC2 (stereo unspecified)
T/C [1]: 106 % of control | T/C (dose: 6.25 mg/kg/injection, schedule: Q01DX005 (ip), vehicle: saline): 103 % of control | T/C [2]: 100 % of control | T/C (dose: 12.5 mg/kg/injection, schedule: Q01DX005 (ip), vehicle: saline): 114 % of control | T/C [3]: 109 % of control | T/C (dose: 25.0 mg/kg/injection, schedule: Q01DX005 (ip), vehicle: saline): 100 % of control

c1onc2cc3c(cc12)OCO3
T/C (dose: 0.39 mg/kg/injection, schedule: Q01DX009 (ip), vehicle: Klucel (hydroxypropylcellulose) (HPC)): 86 % of control and 88 % of control | T/C (dose: 0.78 mg/kg/injection, schedule: Q01DX009 (ip), vehicle: Klucel (hydroxypropylcellulose) (HPC)): 89 % of control and 95 % of control | T/C (dose: 1.56 mg/kg/injection, schedule: Q01DX009 (ip), vehicle: Klucel (hydroxypropylcellulose) (HPC)): 124 % of control and 89 % of control and 93 % of control | T/C (dose: 3.13 mg/kg/injection, schedule: Q01DX009 (ip), vehicle: Klucel (hydroxypropylcellulose) (HPC)): 99 % of control and 92 % of control | T/C (dose: 12.5 mg/kg/injection, schedule: Q01DX009 (ip), vehicle: Klucel (hydroxypropylcellulose) (HPC)): 89 % of control | T/C (dose: 25.0 mg/kg/injection, schedule: Q01DX009 (ip), vehicle: Klucel (hydroxypropylcellulose) (HPC)): 93 % of control

COC(=O)Nc1c2c(nc3ccccc13)-c1ccccc1C(C)(C)C2
T/C [4]: 103 % of control | T/C [5]: 101 % of control | T/C [6]: 98 % of control

O=C(O)c1ccc[nH]c1=O
T/C (dose: 25.0 mg/kg/injection, schedule: Q04DX003 (ip), vehicle: saline): 98 % of control | T/C (dose: 50.0 mg/kg/injection, schedule: Q04DX003 (ip), vehicle: saline): 112 % of control | T/C [7]: 99 % of control | T/C [8]: 93 % of control

CCn1c(C)nc2ncn(-c3ccccc3)c2c1=O
T/C [4]: 100 % of control | T/C [5]: 100 % of control | T/C [6]: 98 % of control

Nc1nnc2cccc(Cl)n12
T/C (dose: 100.0 mg/kg/injection, schedule: Q01DX001 (ip), vehicle: Klucel (hydroxypropylcellulose) (HPC)): 98 % of control | T/C (dose: 200.0 mg/kg/injection, schedule: Q01DX001 (ip), vehicle: Klucel (hydroxypropylcellulose) (HPC)): 96 % of control | T/C (dose: 400.0 mg/kg/injection, schedule: Q01DX001 (ip), vehicle: Klucel (hydroxypropylcellulose) (HPC)): 99 % of control

Clc1ccc(N=C2N=C(Nc3ccc(Cl)cn3)c3ccccc32)nc1
T/C (dose: 12.5 mg/kg/injection, schedule: Q01DX009 (ip), vehicle: saline with Tween-80): 86 % of control | T/C (dose: 25.0 mg/kg/injection, schedule: Q01DX009 (ip), vehicle: saline with Tween-80): 89 % of control | T/C [9]: 87 % of control and 95 % of control

NN/C(N)=N/S(=O)(=O)c1ccccc1
T/C [4]: 107 % of control | T/C [5]: 102 % of control

Cc1ccc(-c2sc3ccccc3c(=O)c2CCl)cc1CO
T/C (dose: 60.0 mg/kg/injection, schedule: Q01DX005 (ip), vehicle: saline with Tween-80): 100 % of control | T/C (dose: 120.0 mg/kg/injection, schedule: Q01DX005 (ip), vehicle: saline with Tween-80): 95 % of control | T/C (dose: 240.0 mg/kg/injection, schedule: Q01DX005 (ip), vehicle: saline with Tween-80): 90 % of control

C=CCCC(C)CC (stereo unspecified)
T/C [9]: 105 % of control | T/C [10]: 103 % of control | T/C (dose: 200.0 mg/kg/injection, schedule: Q01DX009 (ip), vehicle: saline with Tween-80): 100 % of control

CN1CCC2CC1c1ccn(C)c1C2=O (stereo unspecified)
T/C (dose: 7.5 mg/kg/injection, schedule: Q01DX005 (ip), vehicle: saline): 93 % of control | T/C [11]: 96 % of control | T/C [12]: 106 % of control

Cc1ccc2cc3c(ccc4ccccc43)c3c2c1CC3
T/C (dose: 25.0 mg/kg/injection, schedule: Q04DX003 (ip), vehicle: saline with Tween-80): 113 % of control | T/C (dose: 33.0 mg/kg/injection, schedule: Q01DX009 (ip), vehicle: saline with Tween-80): 121 % of control | T/C (dose: 100.0 mg/kg/injection, schedule: Q04DX003 (ip), vehicle: saline with Tween-80): 150 % of control | T/C (dose: 300.0 mg/kg/injection, schedule: Q04DX003 (ip), vehicle: saline with Tween-80): 152 % of control | T/C (dose: 400.0 mg/kg/injection, schedule: Q04DX003 (ip), vehicle: saline with Tween-80): 172 % of control

CNC(=N)c1ccc(NC(=N)c2ccc(NC(=N)c3ccc(NC(=O)Nc4ccc(C(=N)Nc5ccc(C(=N)Nc6ccc(C(=N)NC)cc6)cc5)cc4)cc3)cc2)cc1
T/C (dose: 1.78 mg/kg/injection, schedule: Q04DX003 (ip), vehicle: saline with Tween-80): 108 % of control | T/C (dose: 2.66 mg/kg/injection, schedule: Q04DX003 (ip), vehicle: saline with Tween-80): 108 % of control | T/C (dose: 4.0 mg/kg/injection, schedule: Q04DX003 (ip), vehicle: saline with Tween-80): 116 % of control

C[N+]1=CN(S(=O)(=O)C2C=CC=CC=C2)CC1(C)C
T/C [7]: 100 % of control | T/C [8]: 107 % of control | T/C (dose: 400.0 mg/kg/injection, schedule: Q04DX003 (ip), vehicle: saline): 97 % of control

CCOc1ccc(Br)cc1/C=N/NS(=O)(=O)c1ccc(C)cc1
T/C [10]: 123 % of control

O=c1oc2ccccc2c2c1C(c1ccc3c(c1)OCO3)C=C(c1ccc3c(c1)OCO3)O2 (stereo unspecified)
T/C (dose: 25.0 mg/kg/injection, schedule: Q01DX009 (ip), vehicle: water): 94 % of control | T/C (dose: 50.0 mg/kg/injection, schedule: Q01DX009 (ip), vehicle: water): 94 % of control | T/C (dose: 100.0 mg/kg/injection, schedule: Q01DX009 (ip), vehicle: water): 94 % of control | T/C (dose: 200.0 mg/kg/injection, schedule: Q01DX009 (ip), vehicle: water): 92 % of control

CCc1ccc[n+](-c2ccncc2CC)c1
T/C [11]: 96 % of control | T/C [12]: 100 % of control | T/C (dose: 60.0 mg/kg/injection, schedule: Q01DX005 (ip), vehicle: saline): 106 % of control and 88 % of control

O=C1c2ccccc2C(=O)c2c(Nc3cc4c5c(ccc6c7ccc8c9c(cc(Nc%10cccc%11c%10C(=O)c%10ccccc%10C%11=O)c(c3c56)c97)-c3ccccc3C8=O)C(=O)c3ccccc3-4)cccc21
T/C [2]: 106 % of control | T/C [3]: 101 % of control | T/C [4]: 98 % of control and 101 % of control | T/C [5]: 96 % of control

O=P(CCP(=O)(c1ccccc1)c1ccccc1)(c1ccccc1)c1ccccc1.[Cl][Sn]([Cl])([c]1ccccc1)[c]1ccccc1
T/C (dose: 0.79 mg/kg/injection, schedule: Q01DX005 (ip), vehicle: Klucel (hydroxypropylcellulose) (HPC)): 116 % of control and 117 % of control | T/C (dose: 1.56 mg/kg/injection, schedule: Q01DX005 (ip), vehicle: Klucel (hydroxypropylcellulose) (HPC)): 114 % of control and 119 % of control | T/C (dose: 3.12 mg/kg/injection, schedule: Q01DX005 (ip), vehicle: Klucel (hydroxypropylcellulose) (HPC)): 111 % of control and 119 % of control | T/C [1]: 113 % of control
